From US20250049660A1, “ENOL ETHER PROPERFUME” (FIRMENICH SA, priority 2021, published 2025)

Experiment: Acid-catalyzed hydrolysis of enol ethers in THF/1 M HCl
Assay type: physicochemical
Conditions: THF/1M HCl (80:20 v/v), room temperature; for Hydrolysis of enol ethers, percent remaining, initial: initial (time zero)
Experimental: The acid-catalyzed hydrolysis of Compounds 1, 2, 3 and 25 were measured and compared to the hydrolysis of enol ethers report in WO2019243501. Each enol ether was dissolved in a 4:1 THF/1 M HCl mixture and the percent remaining over time measured relative to an internal standard.
Into a 15 mL vial were added 125 mg of enol ether, 60 mg of hexadecane and 10 mL of THE (purged with N2 and containing 2500 ppm of BHT). After mixing, 2 mL of this solution were removed with a volumetric pipet and used to obtain the time zero measurement. 2 mL of 1 M HCl were mixed with the remaining 8 mL of the THF solution. This mixture was divided into 5 mL vials (1 mL per vial). The vials were gently topped with nitrogen and fitted with screw caps around which parafilm was wrapped. The vials were stored at room temperature until analyzed. For analyses, 2 mL of ethyl acetate was added to a vial and mixed. After phase separation, the top phase was collected and washed with saturated sodium carbonate (1 mL). Samples of the organic phase were analyzed by GC-FID. For the time zero sample, 0.5 mL of deionized water was added to the 2 mL taken from the original THE solution. 1 mL of this solution was added to a 5 mL vial and diluted with 2 mL of ethyl acetate and mixed. The top phase was collected and washed with saturated sodium carbonate (1 mL). The top phase then was analyzed by GC-FID. The percent of enol ether remaining was determined by dividing the peak area ratio of the enol ether to internal standard by the ratio measured at time zero.

Compound	Hydrolysis of enol ethers, percent remaining, 1 d	Hydrolysis of enol ethers, percent remaining, 2 d	Hydrolysis of enol ethers, percent remaining, 3 d	Hydrolysis of enol ethers, percent remaining, 7 d	Hydrolysis of enol ethers, percent remaining, initial	Hydrolysis of enol ethers, percent remaining, 5 h
CC/C=C\CCOC=Cc1ccc(OC)cc1 [1-(2-(((Z)-hex-3-en-1-yl)oxy)vinyl)-4-methoxybenzene, reference compound]	89.1%	80.2%	72.4%	52.5%	100%	–
CC/C=C\CCOC=Cc1ccccc1 [(2-(((Z)-hex-3-en-1-yl)oxy)vinyl)benzene, reference compound]	–	–	79.5%	57.3%	100%	–
CCCCCC(CC)OC=Cc1ccccc1 (stereo not shown) [(2-(octan-3-yloxy)vinyl)benzene, reference compound]	84.9%	72.0%	61.7%	33.6%	100%	–
C(=Cc1ccccc1)OCCc1ccccc1 [(2-phenethoxyvinyl)benzene, reference compound]	95%	90%	83.7%	66.4%	100%	–
CCCCCCCCCCC=COCCc1ccccc1 [Compound 1, (2-(dodec-1-en-1-yloxy)ethyl)benzene]	0%	0%	0%	0%	100%	12.8%
CCCCCCCCCCCC=COCCc1ccccc1 [Compound 2, (2-(tridec-1-en-1-yloxy)ethyl)benzene]	0%	0%	0%	0%	100%	16.3%
C=CCCCCCCCC=COCCc1ccccc1 [Compound 3, (2-(undeca-1,10-dien-1-yloxy)ethyl)benzene]	0%	0%	0%	0%	100%	19.9%
CCCCCCCCCC(C)C=COCCc1ccccc1 (stereo not shown) [Compound 25, (2-((3-methyldodec-1-en-1-yl)oxy)ethyl)benzene]	4.6%	0%	0%	0%	100%	35.6%
CC/C=C\CCOC=CC(C)CCCCCCCCC (stereo not shown) [Compound 27, 1-(((Z)-hex-3-en-1-yl)oxy)-3-methyldodec-1-ene]	–	–	–	–	100%	29.8%
CCCCCCCCCC(C)C=COC(CC)CCCCC (stereo not shown) [Compound 29, 3-methyl-1-(octan-3-yloxy)dodec-1-ene]	–	–	–	–	100%	3.7%
